The values that follow come from patent US20250041317A1, “NEUROACTIVE STEROID FOR THE TREATMENT OF HUNTINGTON'S DISEASE” (SAGE THERAPEUTICS, INC., priority 2021, published 2025).

For one data set, the system named is Patients with HD. Briefly: Tests of executive functioning (Cogstate Battery). It counts as in vivo, human. To be noted: 1 mg, FIGS. 1-4. An excerpt: (§1) Additional objectives included an assessment of changes in subject performance on cognitive tasks.
(§2) Cogstate Battery was used to assess cognitive functioning, such as attention, working memory, information processing speed, executive function, and motor skills, and consists of the Stop Signal Reaction Test (STOP), Detection Task (DET), Identification Task (IDN), One Back Learning Task (ONB), Two Back Learning Task (TWOB), and Groton Maze Learning Test (GML).
(§3) The endpoints for each Cogstate Battery tests are change from baseline scores at each post-baseline assessment.

The subject of data set [1] is subjects with early manifest Huntington's disease. Briefly: Cogstate Two Back Test (TWOB), working memory. To be noted: HD Subjects (Part B), 1 mg. In kind it is in vivo, human.
Description: (§4) Sentinel dosing of subjects was employed for Cohort 3.
as §2, §3
(§5) Mean change from baseline scores at all post-baseline assessments were analyzed using mixed-effect repeated measure model (MMRM); with dose, visit, interaction between dose and visit as fixed effects, baseline as a covariate and subject as random effect. Unstructured covariance structure was used to model the variance-covariance matrix of the repeated measurements. If estimation issues arose during construction of covariance structure, compound symmetry was used in place of unstructured. The least square (LS) means differences between dose groups and placebo at each post baseline timepoint were estimated along with 95% confidence intervals.

A short description of data set [2]: Phase 1 MAD study: safety and tolerability of Compound 1 Oral Solution.
Description: Subjects were assigned sequentially to one of 3 cohorts. […] Cohorts 1 and 2 were divided into 4 sub-groups of 3 subjects. Each sub-group in Part A started dosing on Day 1 over the course of 4 consecutive days, with the remaining dosing days overlapping in a staggered fashion. A maximum of 3 Part A subjects per calendar day per site will begin treatment at Day 1.
The Screening Period began with the signing of the informed consent form (ICF) at the Screening Visit. An optional genetic sample was collected during screening. On Day −2 (Part A) or Day −1 (Part B), qualified subjects were admitted to the unit. Subjects were discharged from the unit on Day 17 after completion of all assessments, provided that the Investigator was satisfied that it is safe for the subject to be discharged. In total, the inpatient stay for Part A subjects was approximately 19 days, and approximately 18 days for Part B subjects. Subjects returned for a Follow-up Visit on Day 21 (±2 days), approximately one week after the end of treatment.
Data set [3] relates to subjects with early manifest Huntington's disease. Briefly: Cogstate Groton Maze Learning Test (GML), executive function. It counts as in vivo, human. To be noted: HD Subjects (Part B), 1 mg, all timepoints except for day 4.
Description: as §4, §2, §3, §5

For data set [4], the system named is Patients with Huntington's Disease. Nature of the data set: Assessment of psychomotor speed (Psychomotor Vigilance Task Test, FIG. 5). It counts as in vivo, human. To be noted: patients with HD, 1 mg.
Description: FIG. 5 depicts performance measured using the Psychomotor Vigilance Task Test in Patients with Huntington's Disease and Healthy Participants. Z-Transformed Change from Baseline to Day 14 (Mean±SE) is depicted.
as §1

The mark [5] stands for this setting: healthy adults (0.5 mg or 1.0 mg) and subjects with early manifest HD, multiple oral doses.

SMILES strings stand for the structures.

Turning to `C[C@H](CC[C@](C)(O)C(F)(F)F)[C@H]1CC[C@H]2[C@@H]3CC=C4C[C@@](C)(O)CC[C@]4(C)[C@H]3CC[C@]12C` [Compound 1], in the data set on Patients with HD, the “Change from baseline on tests of executive functioning” value is “improvements from baseline”. For the same compound, the “Performance on the two-back test vs baseline, statistical significance” value in data set [1] (Days 8-14, threshold p<0.05) is “significant improvement compared to baseline”. Also, the “Performance on the two-back test vs baseline” value in data set [1] (all timepoints after baseline) was “improvement in performance”. Besides, the “TEAEs in Part B” value in data set [2] (Part B, subjects with HD) is “No TEAEs were reported”. Moreover, in data set [2] (setting [5]), the Deaths result is reported as “No deaths were reported”, the “Serious AEs” value is listed as “No serious AEs were reported” and the “TEAEs leading to study withdrawal or treatment discontinuation” value is recorded as “No TEAEs leading to study withdrawal or treatment discontinuation were reported”. Moreover, in data set [2] (measured by C-SSRS), the “Suicidal ideation or suicidal behavior compared to baseline, C-SSRS” value is “no signals for increased suicidal ideation or suicidal behavior”. Further, the “Performance in the GML test vs baseline” value in data set [3] is given as “improvement”. For the same compound, the “Change from baseline on assessment of psychomotor speed” value in data set [4] was “No changes from baseline were observed”.
